Results: patent publication US20130303535A1, “NOVEL BICYCLIC HETEROCYCLIC COMPOUND” (priority 2008, published 2013)
Counter-ions that a name gives are not always drawn.

What follows are compounds tested against TTX resistant Na channel of human SNS-expressing cell (SNS) (Homo sapiens, UniProt Q9Y5Y9) (assay: cell-based). Conditions: CHO-K1, compound concentration 12.5 μM; read-out: SNS inhibitory rate (%).
Sequence of TTX resistant Na channel of human SNS-expressing cell (SNS) (Q9Y5Y9 whole entry, looked up): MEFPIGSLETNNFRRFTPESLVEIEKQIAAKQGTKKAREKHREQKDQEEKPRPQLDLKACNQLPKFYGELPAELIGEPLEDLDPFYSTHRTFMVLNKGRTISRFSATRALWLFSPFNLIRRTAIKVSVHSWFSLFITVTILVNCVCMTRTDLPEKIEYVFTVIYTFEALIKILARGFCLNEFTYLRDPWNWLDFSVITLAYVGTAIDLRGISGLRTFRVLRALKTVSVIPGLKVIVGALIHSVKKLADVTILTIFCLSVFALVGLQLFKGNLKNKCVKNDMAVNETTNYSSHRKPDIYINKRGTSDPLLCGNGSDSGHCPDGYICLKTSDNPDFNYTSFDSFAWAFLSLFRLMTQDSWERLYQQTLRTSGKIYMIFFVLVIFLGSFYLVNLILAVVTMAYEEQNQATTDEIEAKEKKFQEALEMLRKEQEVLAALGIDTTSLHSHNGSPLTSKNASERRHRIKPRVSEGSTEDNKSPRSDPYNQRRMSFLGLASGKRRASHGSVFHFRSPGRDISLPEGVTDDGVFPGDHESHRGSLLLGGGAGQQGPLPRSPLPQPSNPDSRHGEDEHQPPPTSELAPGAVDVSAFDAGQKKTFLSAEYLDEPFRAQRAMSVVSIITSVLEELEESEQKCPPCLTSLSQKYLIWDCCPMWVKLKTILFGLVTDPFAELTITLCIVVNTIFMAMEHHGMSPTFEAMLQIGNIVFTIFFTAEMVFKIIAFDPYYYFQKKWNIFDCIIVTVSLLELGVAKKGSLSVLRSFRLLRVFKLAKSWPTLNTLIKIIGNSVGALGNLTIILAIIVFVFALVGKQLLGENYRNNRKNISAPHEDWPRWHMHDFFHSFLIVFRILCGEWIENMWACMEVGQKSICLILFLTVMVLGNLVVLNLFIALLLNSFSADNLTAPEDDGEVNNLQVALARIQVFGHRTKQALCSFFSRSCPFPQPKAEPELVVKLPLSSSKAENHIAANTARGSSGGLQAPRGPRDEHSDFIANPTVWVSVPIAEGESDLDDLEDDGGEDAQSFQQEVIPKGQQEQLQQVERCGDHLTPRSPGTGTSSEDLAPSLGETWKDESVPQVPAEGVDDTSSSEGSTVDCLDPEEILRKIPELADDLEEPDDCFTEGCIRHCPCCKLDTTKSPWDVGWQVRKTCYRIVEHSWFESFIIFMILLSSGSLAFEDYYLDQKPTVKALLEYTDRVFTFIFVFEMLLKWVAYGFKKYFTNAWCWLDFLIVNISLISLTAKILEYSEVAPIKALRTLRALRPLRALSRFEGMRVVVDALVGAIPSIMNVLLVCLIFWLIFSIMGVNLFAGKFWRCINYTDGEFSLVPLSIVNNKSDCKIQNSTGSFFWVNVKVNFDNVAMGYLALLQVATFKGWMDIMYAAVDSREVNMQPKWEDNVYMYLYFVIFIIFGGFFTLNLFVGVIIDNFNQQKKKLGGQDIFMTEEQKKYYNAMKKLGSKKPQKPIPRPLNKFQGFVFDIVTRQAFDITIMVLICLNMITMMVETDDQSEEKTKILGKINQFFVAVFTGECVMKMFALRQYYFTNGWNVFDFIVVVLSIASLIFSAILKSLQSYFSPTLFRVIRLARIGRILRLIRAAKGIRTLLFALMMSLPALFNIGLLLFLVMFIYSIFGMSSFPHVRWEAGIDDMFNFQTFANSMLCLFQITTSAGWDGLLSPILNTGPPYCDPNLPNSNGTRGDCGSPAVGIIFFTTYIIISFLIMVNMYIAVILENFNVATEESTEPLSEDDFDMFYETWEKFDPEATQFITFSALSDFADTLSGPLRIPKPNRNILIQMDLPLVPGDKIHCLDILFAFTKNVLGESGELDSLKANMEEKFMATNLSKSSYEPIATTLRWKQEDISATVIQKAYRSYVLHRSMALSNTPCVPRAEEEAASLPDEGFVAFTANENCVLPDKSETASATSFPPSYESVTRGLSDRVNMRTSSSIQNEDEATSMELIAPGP

Point of comparison: `CCOCCn1c(CN[C@@H](C)C(N)=O)nc2ccc(Oc3cccc(F)c3)cc21` [Example 53], inhibition at 12.5 µM 94%. Against it:
- C[C@H](NCc1nc2ccc(Oc3ccc(F)cc3)cc2n1C1CC1)C(N)=O [Example 7] — lower, 83.1%
- CCOCCn1c(CN[C@@H](C)C(=O)N2CCNC(=O)C2)nc2ccc(Oc3ccc(F)cc3)cc21 [Example 106] — lower, 86.4%
- C[C@H](NCc1nc2ccc(Oc3ccc(F)c(F)c3)cc2n1C1CCOCC1)C(N)=O [Example 128] — lower, 85%
- CCOCCn1c(CN[C@@H](C)C(N)=O)nc2ccc(-c3ccc(F)cc3Cl)cc21 [Example 155] — lower, 86.1%
- CCOCCn1c(CN[C@@H](C)C(N)=O)nc2ccc(Oc3ccc(C#N)cc3)cc21 [Example 45] — lower, 40.6%
- NC(=O)CNCc1nc2ccc(Oc3ccccc3)cc2n1CC1CCOCC1 [Example 14] — lower, 16.4%
- CCOCCn1c(CN[C@@H](C)C(N)=O)nc2cc(F)c(-c3ccc(F)c(F)c3)cc21 [Example 183] — lower, 72.3%
- C[C@H](NCc1nc2ccc(Oc3ccc(OC(F)(F)F)cc3)cc2n1C[C@@H]1CCCO1)C(N)=O [Example 120] — lower, 92.4%
- CCOCCn1c(CN[C@@H](C)C(N)=O)nc2ccc(-c3ccc(F)cc3F)cc21 [Example 147] — lower, 23.5%
- CCOCCn1c(CNC(C)(C)C(N)=O)nc2ccc(Oc3ccccc3)cc21 [Example 39] — lower, 48.8%
- CCOCCn1c(CN[C@@H](C)C(N)=O)nc2ccc(-c3ccc(F)c(C)c3)cc21 [Example 167] — lower, 82.8%
- CCOCCn1c(CN[C@@H](C)C(N)=O)nc2ccc(Oc3ccc(F)c(F)c3)cc21 [Example 48] — higher, 96.7%
- CC(C)NC(=O)N1CCC(n2c(CN[C@@H](C)C(N)=O)nc3ccc(Oc4ccc(F)cc4)cc32)CC1 [Example 84, 4-[2-({[(2S)-1-amino-1-oxopropan-2-yl]amino}methyl)-6-(4-fluorophenoxy)-1H-benzimidazol-1-yl]-N-(propan-2-yl)piperidine-1-carboxamide] — lower, 76.8%
- CCOCCn1c(CN[C@@H](C)C(N)=O)nc2ccc(OCc3ccc(F)cc3)cc21 [Example 78, N^2-({1-(2-ethoxyethyl)-6-[(4-fluorobenzyl)oxy]-1H-benzimidazol-2-yl}methyl)-L-alaninamide] — lower, 22.2%
- NC(=O)[C@@H]1CCCN1Cc1nc2ccc(Oc3ccccc3)cc2n1CC1CCOCC1 [Example 16] — higher, 96.2%
- CCOCCn1c(CNCC(N)=O)nc2ccc(Oc3ccccc3)cc21 [Example 2, N^2-{[1-(2-ethoxyethyl)-6-phenoxy-1H-benzimidazol-2-yl]methyl}glycinamide] — lower, 8.4%
- C[C@H](NCc1nc2ccc(Oc3ccc(OC(F)(F)F)cc3)cc2n1C[C@H]1CCCO1)C(N)=O [Example 132] — lower, 86.4%
- CCOCCn1c(CN[C@@H](C)C(N)=O)nc2ccc(-c3ccc(F)c(F)c3)cc21 [Example 148] — lower, 17%
- C[C@H](NCc1nc2ccc(Oc3ccccc3)cc2n1C1CCCC1)C(N)=O [Example 26] — lower, 26.6%
- CCn1c(CN[C@@H](C)C(N)=O)nc2ccc(-c3ccc(F)cc3)cc21 [Example 110, N^2-{[1-ethyl-6-(4-fluorophenyl)-1H-benzimidazol-2-yl]methyl}-L-alaninamide] — lower, 9.8%
- CCOCCn1c(CN[C@H](C)C(N)=O)nc2ccc(Oc3ccccc3)cc21 [Example 36] — lower, 0.4%
- C[C@H](NCc1nc2ccc(Oc3ccccc3)cc2n1CC1CCOCC1)C(N)=O [Example 13] — lower, 29.8%
- CCOCCn1c(CNC(C)(C)C(N)=O)nc2ccc(-c3ccc(F)cc3)cc21 [Example 149] — lower, 30.6%
- CCOCCn1c(CNCC(N)=O)nc2ccc(-c3ccc(F)cc3)cc21 [Example 67] — lower, 30.8%
- NC(=O)[C@@H]1CCCN1Cc1nc2ccc(Oc3ccccc3)cc2n1C[C@@H]1CCCO1 [Example 21] — higher, 100%
- CCOCCn1c(CN[C@@H](C)C(N)=O)nc2ccc(Oc3ccccc3F)cc21 [Example 52] — lower, 89.7%
- COCCCn1c(CN[C@@H](C)C(N)=O)nc2ccc(Oc3ccc(OC(F)(F)F)cc3)cc21 [Example 127] — lower, 93.9%
- CCn1c(CN[C@@H](C)C(N)=O)nc2ccc(Oc3ccc(OC(F)(F)F)cc3)cc21 [Example 104] — lower, 83.6%
- CCOCCn1c(CN[C@@H](C)C(N)=O)nc2ccc(-c3ccc(C)cc3)nc21 [Example 209, N^2-{[3-(2-ethoxyethyl)-5-(4-methylphenyl)-3H-imidazo[4,5-b]pyridin-2-yl]methyl}-L-alaninamide hydrochloride] — lower, 6.5%
- CCOCCn1c(CN[C@@H](C)C(N)=O)nc2ccc(Oc3ccccc3)cc21 [Example 1, N^2-{[1-(2-ethoxyethyl)-6-phenoxy-1H-benzimidazol-2-yl]methyl}-L-alaninamide] — lower, 45.8%
- C[C@H](NCc1nc2ccc(Oc3ccccc3)cc2n1C[C@H]1CCCO1)C(N)=O [Example 20] — lower, 7.2%
- CCOCCn1c(CN[C@@H](C)C(N)=O)nc2cc(F)c(Oc3ccc(F)cc3)cc21 [Example 81, N^2-{[1-(2-ethoxyethyl)-5-fluoro-6-(4-fluorophenoxy)-1H-benzimidazol-2-yl]methyl}-L-alaninamide] — lower, 69.1%
- CCOCCn1c(CN[C@H](C(N)=O)C(C)C)nc2ccc(Oc3ccc(F)cc3)cc21 [Example 4, N^2-{[1-(2-ethoxyethyl)-6-(4-fluorophenoxy)-1H-benzimidazol-2-yl]methyl}-L-valinamide] — lower, 66.8%
- COCCCn1c(CN[C@@H](C)C(N)=O)nc2ccc(Oc3ccc(F)c(F)c3)cc21 [Example 122] — higher, 100%
- CCOCCn1c(CNCC(N)=O)nc2ccc(-c3ccccc3Cl)cc21 [Example 70] — lower, 11.2%
- CCOCCn1c(CN[C@@H](C)C(N)=O)nc2ccc(-c3ccc(F)c(OC)c3)cc21 [Example 173] — lower, 27.1%
- CCOCCn1c(CN[C@@H](C)C(N)=O)nc2ccc(-c3ccc(C(F)(F)F)cc3)cc21 [Example 146] — lower, 19.7%
- CCOCCn1c(CN[C@@H](C)C(N)=O)nc2ccc(Oc3cc(F)c(F)c(F)c3)cc21 [Example 44] — lower, 84.9%
- CCOCCn1c(CN[C@@H](C)C(=O)NCC(C)(C)O)nc2ccc(Oc3ccc(F)cc3)cc21 [Example 87, N^2-{[1-(2-ethoxyethyl)-6-(4-fluorophenoxy)-1H-benzimidazol-2-yl]methyl}-N-(2-hydroxy-2-methylpropyl)-L-alaninamide] — lower, 90.1%
- CCOCCn1c(CNC(C)(C)C(N)=O)nc2ccc(-c3ccc(C)cc3C)cc21 [Example 160] — higher, 97%
- CCOCCn1c(CN[C@@H](CC)C(N)=O)nc2ccc(Oc3ccccc3)cc21 [Example 37] — lower, 42.3%
- CCOCCn1c(CN[C@@H](C)C(N)=O)nc2ccc(Oc3ccc(F)cc3F)cc21 [Example 49] — higher, 94.8%
- CCOCCn1c(CN[C@@H](C)C(N)=O)nc2cc(C)c(-c3ccc(F)cc3)cc21 [Example 113, N^2-{[1-(2-ethoxyethyl)-6-(4-fluorophenyl)-5-methyl-1H-benzimidazol-2-yl]methyl}-L-alaninamide] — lower, 64.7%
- CC(C)(NCc1nc2ccc(Oc3ccc(F)cc3F)cc2n1C[C@@H]1CCCO1)C(N)=O [Example 137] — lower, 90.7%
